Consider 2 substances from US4876279A, “Antihypercholesterolemic compounds” (Merck & Co., Inc., priority 1988, dated 1989).

This test relates to HMG-CoA reductase. In words: HMG-CoA Reductase Inhibition Assay (in vitro). Type of test: biochemical, rat. Conditions: relative to compactin, arbitrarily assigned a value of 100; IC50 compared with that of compactin determined simultaneously; tested as sodium salt of dihydroxy acid form. How it is done:
The intrinsic HMG-CoA reductase inhibition activity of the claimed compounds is measured in the in vitro protocol published in J. Med. Chem., 28, P. 347-358 (1985) and described below:
Isolation of HMG-CoA Reductase. Male Holtzman Sprague-Dawley rate (225-250 g) were kept on reversed lighting and fed Purina rat chow containing 3% cholestyramine for 7 days preceding their sacrifice by CO2 asphyxiation. Livers were removed 6 hours into the dark cycle and used immediately to prepare microsomes. […]
Test compounds or compactin (after first being converted to the sodium salt of their dihydroxy acid form in situ by addition of 1 N NaOH (1 equiv)) were added to the assay system in 10-μL volumes at multiconcentration levels. […] Five milliliters of Aquasol-2 (New England Nuclear) was added to each vial, and radioactivity was measured in a Packard Tri Carb Prias scintillation counter. IC50 values were determined by plotting percentage inhibition against test compounds concentration and fitting a straight line to the resulting data by using the least-squares method. For estimation of relative inhibitory potencies, compactin was assigned a value of 100 and the IC50 value of the test compound was compared with that of compactin determined simultaneously.

On to “6(R)-[2-8(S)-(1-Ethoxycarbonylcyclobutanecarbonyloxy)-2(S),6(R)-dimethyl-1,2,6,7,8,8a-(R)-hexahydronaphthyl-1(S)]ethyl]-4(R)-hydroxy-3,4,5,6-tetrahydro-2H-pyrane-2-one”, for which the “Relative Potency” value was 65.
“6(R)-[2-[8(S)-(1-Ethoxycarbonylcyclopropanecarbonyloxy)-2(S),6(R)-dimethyl-1,2,6,7,8,8a (R)-hexahydronaphthyl-1(S)]ethyl]-4(R)-hydroxy-3,4,5,6-tetrahydro-2H-pyran-2-one”: the “Relative Potency” value was 11.
